These results are taken from PubChem BioAssay AID1996.

Molecules are shown by their SMILES. Converted amounts (≈) assume the structure as drawn. Bounds are passed on as bounds.

The solubility (kinetic) is solubility judged after dilution from a stock solution rather than from solid.

For this series the following is noted: buffer; pH 7.4; 200.0 µM.
`Cc1ccc(CC2CC(=O)N(c3cc(Cl)ccn3)C2=O)cc1` (stereo not drawn): the kinetic solubility was determined as 13.7 µg/mL (≈ 43.5 µM).
Then `CCOC(=O)C1=C(C)NC(=O)NC1c1ccc([N+](=O)[O-])o1` (stereo not drawn), with 42.7 µg/mL (≈ 145 µM).
`COc1ccccc1Cn1c(CO)nc2ccccc21` gave a kinetic solubility of 37.4 µg/mL (≈ 139 µM). This solubility kinetic and that of the compound before are within 1.5-fold of each other.
The result for `COc1cc(N)c(Cl)cc1C(=O)OCC(=O)NC1CCCC1` reads greater than 49 µg/mL; that for `Cc1cccc(NC(=O)CSc2nc(C3CC3)nc3ccccc23)c1`, 0.3 µg/mL (≈ 0.858 µM).
The result for `COc1ccc(CNC(=O)COC(=O)Cc2ccc(Br)cc2)cc1` reads 5.8 µg/mL (≈ 14.8 µM); that for `CC(=O)Nc1ccc(-c2nc3cc(Cl)ccc3o2)cc1`, less than 0.3 µg/mL.
Then `CCc1ccc(NC(=O)Nc2cnccn2)cc1`, with 9.9 µg/mL (≈ 40.9 µM); and `Cc1ccc(OCCC(=O)OCC(=O)NC2CCCC(C)C2C)cc1` (stereo not drawn), with 15.9 µg/mL (≈ 45.8 µM).
As for `O=C1CSC(c2ccccn2)N1c1ccc(C(F)(F)F)cc1` (stereo not drawn), the kinetic solubility is greater than 48.6 µg/mL.
`Cc1cc(C)nc(NC=C2C(=O)OC(C)(C)OC2=O)n1` displayed a solubility (kinetic) of 41 µg/mL (≈ 148 µM).
The result for `O=C(Nc1ccccc1F)N1CCc2ccccc2C1` reads greater than 40.5 µg/mL; that for `CC(NC(=O)c1cccc(F)c1)C1CC2CCC1C2` (stereo not drawn), 19.9 µg/mL (≈ 76.1 µM); that for `O=C(CN1C(=O)c2cccc3cccc(c23)C1=O)NCCCO`, greater than 46.8 µg/mL.
Then `COc1cccc(CNc2ncc(-c3ccccc3)n2C)c1`, with 32.9 µg/mL (≈ 112 µM); and `Cc1nc(C(=O)NCC(=O)c2ccc(Cl)cc2)c(C(F)(F)F)o1`, with 8.4 µg/mL (≈ 24.2 µM); and `COc1ccc(OCCCC(=O)Nc2nc(C)c(C(C)=O)s2)cc1`, with 1.3 µg/mL (≈ 3.73 µM).
Then `Cc1[nH]c(SCC(=O)Nc2cc(C(N)=O)cc(C(N)=O)c2)nc1Cc1ccccc1`, with greater than 63.5 µg/mL; and `CCn1c(CCc2ccccc2)nc2ccccc21.Cl`, with 28.4 µg/mL.
As for `Cc1cc2c(cc1C)C(c1cccc(F)c1)CC(=O)N2` (stereo not drawn), the solubility (kinetic) was less than 0.6 µg/mL.
Then `COC(=O)c1ccc(CNC(=O)CCC(=O)N2CCOCC2)cc1`, with greater than 50.2 µg/mL.
As for `O=[N+]([O-])c1ccc(C(=S)N2CCCC2)cc1`, the kinetic solubility was greater than 35.4 µg/mL.
Then `S=C(NCCc1ccccc1)N1CCCC1`, with greater than 35.2 µg/mL; and `CC(C)(C)c1cc(NS(=O)(=O)c2ccc(Br)s2)no1`, with 30.1 µg/mL (≈ 82.4 µM).
The result for `COc1ccc(C2C(C#N)=C(N)Oc3cc(O)ccc32)cc1Cl` (stereo not drawn) reads 43.5 µg/mL (≈ 132 µM); that for `CCCCn1c(N)c(N(C)C(=O)C2CC(=O)N(Cc3ccco3)C2)c(=O)[nH]c1=O` (stereo not drawn), greater than 60.5 µg/mL.
Then `O=C1CCN(Cc2nc(-c3ccc(Cl)cc3)no2)CCN1`, with greater than 46 µg/mL; and `CN(C(=O)CCN1C(=O)c2ccccc2C1=O)c1ccccc1`, with 36.5 µg/mL (≈ 118 µM); and `Cc1ccc(S(=O)(=O)N2CCCCC2)cc1NC(=O)C1CCC1`, with 16.4 µg/mL (≈ 48.7 µM).
Compound `CCSc1ncc(Cl)c(C(=O)Nc2ccccc2C)n1` had a kinetic solubility of 0.5 µg/mL (≈ 1.62 µM).
Then `CCOc1ccc2[nH]c3c(N4CCc5ccccc5C4)ncnc3c2c1`, with 1.2 µg/mL (≈ 3.48 µM); and `N/C(=N\OC(=O)CCN1C(=O)c2ccccc2C1=O)c1ccccn1`, with 49.6 µg/mL (≈ 147 µM); and `CC(C)CCN1CCN(Cc2ccoc2)CC1CCO` (stereo not drawn), with 29.6 µg/mL (≈ 106 µM).
Turning to `COc1ccc(S(=O)(=O)N[C@@H](CSCc2ccccc2)C(=O)O)cc1`, the solubility (kinetic) is greater than 57.2 µg/mL.
Turning to `CN(C)/C=C1/NC(=S)NC1=O`, the kinetic solubility is greater than 25.7 µg/mL.
The result for `NC(=O)C1CCN(C(=O)CC2(CC(=O)O)CCCC2)CC1` reads greater than 44.5 µg/mL; that for `Cc1cccc(NC(=O)c2cc(=O)[nH]c3ccccc23)c1`, 3.1 µg/mL (≈ 11.1 µM); that for `Cc1cc(NC(=O)/C=C/c2ccccc2)c(C(C)C)cc1O`, 5.4 µg/mL (≈ 18.3 µM).
The result for `Cl.Fc1ccc(OCCCCN2CCOCC2)cc1` reads greater than 43.5 µg/mL; that for `CC(CCc1ccccc1)NC(=O)CCc1cn(C)c2ccccc12` (stereo not drawn), 6.2 µg/mL (≈ 18.5 µM); that for `Cc1ccc(S(=O)(=O)NCc2csc(C)n2)cc1`, greater than 42.4 µg/mL.
As to `O=C(Nc1cccnc1)c1cc(-c2ccc(Cl)cc2)on1`, the solubility (kinetic) was 0.3 µg/mL (≈ 1 µM).
Then `Cc1noc(NS(=O)(=O)c2ccc(NC(=O)c3cccc(S(=O)(=O)Nc4ccccc4F)c3)cc2)c1C`, with 71.3 µg/mL (≈ 131 µM); and `O=C(COC(=O)COc1ccccc1)NC1CCS(=O)(=O)C1` (stereo not drawn), with greater than 49.1 µg/mL.
For `CC(=O)c1sc(NCc2ccccc2)nc1C`, the kinetic solubility stood at 31.8 µg/mL (≈ 129 µM).
The result for `Cc1nc([N+](=O)[O-])c(C(=O)O)n1C` reads greater than 27.8 µg/mL.
The result for `COc1ccc(CNc2ncnc3sccc23)cc1` reads greater than 40.7 µg/mL; that for `O=c1nc(-c2ccccc2)c2cc(SC(F)F)ccc2[nH]1`, 1.4 µg/mL (≈ 4.6 µM).
Then `NC(=O)C1CCN(C(=O)CCC(=O)c2ccc(F)cc2)CC1`, with greater than 46 µg/mL; and `C=CCn1c(SCC(=O)Nc2cc(C)on2)nnc1-c1ccccc1OC`, with greater than 57.8 µg/mL; and `Cc1cc(C(=O)Nc2ccc(C(=O)O)cc2)c(C)o1`, with greater than 38.9 µg/mL.
Consider `COCC(=O)Nc1ccc(S(=O)(=O)NCC2CCCO2)cc1` (stereo not drawn), for which the solubility (kinetic) was greater than 49.3 µg/mL.
The result for `CCN(C(=O)COC(=O)/C(C#N)=C/c1ccc(N(C)C)cc1)C1CCS(=O)(=O)C1` (stereo not drawn) reads 4.8 µg/mL (≈ 11.4 µM).
The compound `Cc1nonc1CC(=O)N1CCCC(C(=O)c2ccc(Cl)cc2)C1` (stereo not drawn) came in with a solubility (kinetic) of 48.2 µg/mL (≈ 139 µM).
The result for `CCc1ccc(/C=C\C(=O)N2CCCC2)cc1` reads 28.3 µg/mL (≈ 123 µM); that for `CCCCNC(=O)C1CCN(c2nc(C)cc(C)n2)CC1`, 8.9 µg/mL (≈ 30.6 µM).
With `CC(=O)N/C(=N/c1nc(C)cc(C)n1)Nc1cc(C)cc(C)c1`, the kinetic solubility was determined as 3.8 µg/mL (≈ 12.2 µM).
Consider `COc1ccc(Oc2nc(-c3cccnc3)nc3ccccc23)cc1`, for which the solubility (kinetic) was less than 0.2 µg/mL.
For `O=C(CSc1cccc[n+]1[O-])N1CCCCCC1`, the kinetic solubility came out at 27 µg/mL (≈ 101 µM).
`Cc1noc(C)c1C(=O)N(C)Cc1ccccc1` had a kinetic solubility of 34 µg/mL (≈ 139 µM).
Then `COc1cc(C(=O)N[C@H](C(=O)NC2CCCc3ccccc32)C(C)C)cc(OC)c1OC` (stereo partly drawn), with 4.9 µg/mL (≈ 11.1 µM); and `Cc1ccccc1OCC(=O)Nc1ccc(N2CCN(C)CC2)c(Cl)c1`, with 12.3 µg/mL (≈ 32.9 µM).
Then `CN1CCN(c2nc3c(c(=O)n(C)c(=O)n3C)n2Cc2ccccc2F)CC1`, with greater than 58 µg/mL; and `Cc1ccc(C)c(OCCNc2ncccc2[N+](=O)[O-])c1`, with 0.3 µg/mL (≈ 1.04 µM); and `Cl.Oc1ccccc1C1NCc2ccccc2-n2cccc21` (stereo not drawn), with 32.2 µg/mL.
On to `O=C(COC(=O)c1ccco1)Nc1cc(S(=O)(=O)N2CCOCC2)ccc1Cl`, for which the solubility (kinetic) was determined as 16.4 µg/mL (≈ 38.2 µM). This solubility kinetic is about 2-fold lower than that of the compound before.
The result for `CN(CC(=O)Nc1ccccc1Cl)C(=O)CN1C(=O)C2CC=CCC2C1=O` (stereo not drawn) reads 50.3 µg/mL (≈ 129 µM); that for `O=C(/C=C/c1ccco1)NCC1OCCc2ccccc21` (stereo not drawn), 41.5 µg/mL (≈ 146 µM).
As for `CC12CC(O)C3c4ccc(O)cc4CCC3C1CC/C2=N\O` (stereo not drawn), the kinetic solubility is greater than 45.2 µg/mL.
On to `Cc1nc(SCc2ccccc2F)c2oc3ccccc3c2n1`, for which the kinetic solubility is less than 0.3 µg/mL.
Then `COc1ccc(Cl)cc1NC(=O)Nc1cc(C)on1`, with 0.9 µg/mL (≈ 3.19 µM).
Then `COc1ccc(C(C)(C)C)cc1NC(=O)C1=CC=CN2CCS(=O)(=O)N=C12`, with 1.7 µg/mL (≈ 4.36 µM).
In turn, `Fc1ccc(OCCOCCN2CCCC2)cc1` had a kinetic solubility of 28 µg/mL (≈ 111 µM).
`c1ccc2c(c1)CCNC2c1ccncc1` (stereo not drawn) returned a kinetic solubility greater than 31.5 µg/mL.
Then `O=C(CCNC(=O)c1ccc(Cl)cc1)Nc1ncccc1O`, with 45 µg/mL (≈ 141 µM).
The result for `CC1CCCCN1Cc1c[nH]c2ccccc12` (stereo not drawn) reads 28.8 µg/mL (≈ 126 µM).
As to `Cc1ccc(C(=O)NCCCNC(=O)c2ccco2)cc1C`, the kinetic solubility was found to be 43.4 µg/mL (≈ 144 µM).
Then `Cc1cc(=O)oc(C)c1C(=O)NC1CCCCCCC1`, with 11.8 µg/mL (≈ 42.5 µM); and `C#CCn1ccc(O)c(Cc2ccccc2)c1=O`, with greater than 35.9 µg/mL; and `COc1cccc(-n2c(/C=C/c3ccccn3)nc3ccccc3c2=O)c1`, with 0.5 µg/mL (≈ 1.41 µM).
The compound `Cl.N=C(N)N1CCc2ccccc21` gave a kinetic solubility of 28.1 µg/mL.
The result for `O=C(CN1C(=O)C2C3CCC(C3)C2C1=O)OCC(=O)c1ccccc1` (stereo not drawn) reads 48.1 µg/mL (≈ 141 µM).
The result for `Fc1ccccc1CNC(=S)NC1CCCCC1` reads greater than 40 µg/mL; that for `Cc1cc(C)cc(NC(=O)C2CCCN2C(=O)NC2CCCCC2)c1` (stereo not drawn), 0.7 µg/mL (≈ 2.04 µM); that for `CN(CC(=O)Nc1ccc(F)cc1)CC(=O)N1CCCCC1`, greater than 46.1 µg/mL.
Then `CC(C)NCC(O)c1ccc(NS(C)(=O)=O)cc1.Cl` (stereo not drawn), with greater than 46.3 µg/mL.
In turn, `COc1ccc(/C=N/Nc2nc(C)cc(=O)[nH]2)cc1OC` yielded a solubility (kinetic) greater than 43.2 µg/mL.
The result for `OCCN(CC#CCC(O)(c1ccccc1)C1CCCC1)CCO` (stereo not drawn) reads greater than 49.7 µg/mL; that for `O=C(Cn1cnc2ccccc21)OCC(=O)N1CCCCC1`, greater than 45.2 µg/mL.
Then `COCCNc1ccc(N2C(=O)CCCC2=O)cc1[N+](=O)[O-]`, with 45.8 µg/mL (≈ 149 µM).
The result for `CCOc1ccc2nc(S(N)(=O)=O)sc2c1` reads greater than 38.7 µg/mL.
`CN(C)c1ccc(C(=O)N(Cc2ccccc2)Cc2ccccc2)cc1` showed a kinetic solubility of less than 0.4 µg/mL.
Then `COC(=O)c1ccc(S(=O)(=O)N2CCN(C)CC2)n1C`, with greater than 45.2 µg/mL; and `COc1ccc(-c2csc(Nc3ccccn3)n2)cc1`, with less than 0.2 µg/mL.
As for `COC(=O)c1[nH]c2c(c1C)C(=O)CC(c1cccc(OC)c1)C2` (stereo not drawn), the solubility (kinetic) came to 2.1 µg/mL (≈ 6.7 µM).
The result for `Cc1ccccc1C(=O)NCCCNC(=O)c1cnccn1` reads 40.1 µg/mL (≈ 134 µM); that for `CC1CCc2c(sc3[nH]c(=S)n(C)c(=O)c23)C1` (stereo not drawn), 4.2 µg/mL (≈ 15.8 µM); that for `CC(C)(C)C(=O)Nc1cc(NC(=O)C(C)(C)C)cc(C(=O)Nc2c[nH]c(=O)[nH]c2=O)c1`, 45.3 µg/mL (≈ 105 µM).
The result for `CC1(C)CC2CC(C)(CN2C(=O)COC(=O)c2ccc(NC(=O)CC#N)cc2)C1` (stereo not drawn) reads 7.6 µg/mL (≈ 19.1 µM); that for `CCc1ccccc1NC(=O)CCN1C(=O)C2CC=CCC2C1=O` (stereo not drawn), greater than 49 µg/mL; that for `CSCCC(NC(=O)c1ccccc1)C(=O)N1CCN(C(=O)c2ccccc2)CC1` (stereo not drawn), greater than 63.8 µg/mL.
Then `CC(C)C(C)NC(=O)COc1ncnc2sccc12` (stereo not drawn), with greater than 41.9 µg/mL; and `Cc1cccc(CSc2ncnc3ccccc23)c1`, with 0.4 µg/mL (≈ 1.5 µM).
